pIC50: −log10 of the molar value.
How the values were obtained:
BAX = BAX (Homo sapiens, UniProt Q07812); experiment: SMAC mCherry assay in permeabilized Bax-/- Bak-/- BMK cells with recombinant Bax and cBid; type: cell-based, mouse; design: made in house; host or cells: Escherichia coli BL21-AI; conditions: 20 nM Bax, 0.5 nM cBid, 60-80 minutes; read-out: SMAC mCherry I.D IC50
Protocol: Bax−/− Bak−/− double-knockout Baby Mouse Kidney (BMK) cells stably expressing a SMAC-(1-56)-mCherry fusion protein were cultured in DMEM complete (DMEM supplemented with 10% FBS and 1× Penicillin-Streptomycin) in 10 cm diameter tissue-culture treated dishes at 37° C. in a humidified incubator with 5% CO2 in air. Cells were washed with PBS, incubated with 1×Trypsin and resuspended in DMEM complete. Detached cells were seeded at 6000 cells per well in 50 uL DMEM complete into a 384 well Perkin-Elmer Phenoplate, incubated at room-temperature for 30 minutes followed by incubation overnight at 37° C. in a humidified incubator with 5% CO2 in air. Recombinant Bax and recombinant cBid were quickly thawed between fingers and 25 mM compound stocks in DMSO were thawed at room temperature. An 8 point titration curve of each compound was created in a 384-well source plate containing Trehalose-Hepes Buffer (THB, 135 mM trehalose, 50 mM KCl, 10 mM HEPES-KOH pH 7.4, 5 mM succinate, 20 uM EDTA, 20 uM EGTA, 0.1% BSA) supplemented with 1/1000 DRAQ5, 0.0025% digitonin, 20 nM Bax and 0.5 nM cBid. The source plate also contained control wells with THB supplemented with 1/1000 DRAQ5, 0.0025% digitonin plus 20 nM Bax (negative control) or 20 nM Bax and 0.5 nM cBid (positive control). Using the Vantage automated liquid handler, DMEM complete media was removed from the cells growing in the 384 well Phenoplate. The cells were washed 2× with 30 uL THB and then 25 uL from the 384 well source plate containing THB proteins and compounds was transferred to the cells growing in the 384 well plate. The cells were incubated for 60-80 minutes at 37 C in a humidified incubator with 5% CO2 in air and then imaged on the Opera Phenix Microscope. Two image channels were acquired: 1) DRAQ5 channel, to visualize nuclei and aid in cell segmentation and 2) SMAC-mCherry channel to visualize mitochondria that retain SMAC-mCherry. Data was processed using PerkinElmer Harmony software where the cells were segmented using the DRAQ5 channel and the mean intensity of SMAC-mCherry for each cell was calculated. The single-cell lobject level data was exported and then analyzed using R code. A per cell SMAC-mCherry intensity cutoff was calculated as 1.33 times the mean per cell SMAC-mCherry intensity of the THB+Bax control. Cells with a SMAC-mCherry intensity below or equal to the cutoff were scored as “released”. The percentage SMAC-mCherry release was calculated as the number of cells scored as “released” divided by the total amount of cells multiplied by 100. Dose-response curves were fit to a 4-parameter log-logistic model to determine the IC50 value for each compound.

FL EGFR = target: T1, FL EGFR (Homo sapiens, UniProt P00533); experiment: EGFR kinase assay (ADP-Glo); type: biochemical
T1 construct: kinase domain of EGFR (amino acids 695-1210); purchased Promega V3831
T1 sequence (P00533 695-1210): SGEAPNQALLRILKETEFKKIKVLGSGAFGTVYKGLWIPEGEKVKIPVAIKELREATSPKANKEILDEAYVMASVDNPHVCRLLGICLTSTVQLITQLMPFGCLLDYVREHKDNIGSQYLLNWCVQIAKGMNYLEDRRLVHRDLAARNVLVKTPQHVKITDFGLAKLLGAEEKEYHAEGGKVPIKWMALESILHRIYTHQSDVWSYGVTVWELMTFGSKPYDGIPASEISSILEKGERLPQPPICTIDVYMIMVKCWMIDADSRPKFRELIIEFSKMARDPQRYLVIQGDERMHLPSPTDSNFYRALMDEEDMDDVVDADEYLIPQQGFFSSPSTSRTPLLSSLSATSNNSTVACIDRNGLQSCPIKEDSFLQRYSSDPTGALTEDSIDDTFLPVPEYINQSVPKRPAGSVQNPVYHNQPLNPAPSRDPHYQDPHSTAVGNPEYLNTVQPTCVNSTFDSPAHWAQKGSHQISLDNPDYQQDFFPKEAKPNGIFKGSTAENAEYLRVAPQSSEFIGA
Protocol: A peptide containing the kinase domain of EGFR (amino acids 695-1210) was used to assess the inhibitory potency of the inhibitors. The ADP-Glo kinase assay (Promega V9101), and the EGFR kinase enzyme (Promega V3831) were used according to the supplier's instructions. Briefly, […] reactions were assembled in wells of a 384 well plate as follows: 5 μL of the kinase reaction, 5 μL of the ADP depletion reagent, and 10 μL of the luciferase reagent. For the kinase reaction: 1 μL of the inhibitor (dissolved in DMSO) was mixed with 2 μL EGFR peptide ([…]), 1 μL of a poly Glu4Tyr1 peptide (0.2 μg/μL), 1 μL reaction buffer, and 1 μL of ATP (final concentration of 5 μM). The kinase reaction was incubated at room temperature for 1 hour. 5 μL of the ATP depletion/kinase terminating reagent was mixed into each well and incubated at room temperature for 40 minutes. 10 μL of the kinase detection reagent containing luciferase was mixed into each well and incubated at room temperature for 30 minutes for bioluminescent detection of ADP produced from the kinase reaction in step 1. Bioluminescent signal was detected in a Tecan Safire^2 with a black plug covering the excitation filter, and an empty emission filter. The integration time was increased to […] to detect enough luminescence per reading.

Chain of BAX (Q07812 whole entry, the tested form may be a part): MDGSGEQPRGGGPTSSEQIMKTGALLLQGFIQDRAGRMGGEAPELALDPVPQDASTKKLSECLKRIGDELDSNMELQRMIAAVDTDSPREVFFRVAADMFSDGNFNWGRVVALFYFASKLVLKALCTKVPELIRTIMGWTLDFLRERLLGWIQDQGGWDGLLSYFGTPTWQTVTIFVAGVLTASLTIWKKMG

| pIC50 (BAX) | Compound | pIC50 (FL EGFR) |
| --- | --- | --- |
| 5.00 to 7.00 | O=C(CCCN1CCCCC1)Nc1ccc2ccnc(Nc3cc(Cl)c(F)c(Cl)c3)c2c1 [Compound 1-36, N-(1-((3,5-dichloro-4-fluorophenyl)amino)isoquinolin-7-yl)-4-(piperidin-1-yl)butanamide] | – |
| 5.00 to 7.00 | O=C(CCCN1CCCCC1)Nc1ccc2ccnc(Nc3cc(F)c(Cl)c(Cl)c3)c2c1 [Compound 1-37, N-(1-((3,4-dichloro-5-fluorophenyl)amino)isoquinolin-7-yl)-4-(piperidin-1-yl)butanamide] | – |
| 5.00 to 7.00 | O=C(CCCN1CCCCC1)Nc1ccc2ccnc(Nc3cc(Cl)c(Cl)cc3F)c2c1 [Compound 1-38, N-(1-((4,5-dichloro-2-fluorophenyl)amino)isoquinolin-7-yl)-4-(piperidin-1-yl)butanamide] | – |
| 5.00 to 7.00 | O=C(CCCN1CCCCC1)Nc1ccc2ccnc(Nc3cccc(Cl)c3F)c2c1 [Compound 1-39, N-(1-((3-chloro-2-fluorophenyl)amino)isoquinolin-7-yl)-4-(piperidin-1-yl)butanamide] | – |
| 5.00 to 7.00 | O=C(CCCN1CCCCC1)Nc1ccc2ccnc(Nc3ccc(F)c(Cl)c3F)c2c1 [Compound 1-40, N-(1-((3-chloro-2,4-difluorophenyl)amino)isoquinolin-7-yl)-4-(piperidin-1-yl)butanamide] | – |
| 4.30 to 4.96 | N#Cc1cccc(Nc2nccc3ccc(NC(=O)CCCN4CCCCC4)cc23)c1 [Compound 1-41, N-(1-((3-cyanophenyl)amino)isoquinolin-7-yl)-4-(piperidin-1-yl)butanamide] | – |
| 4.30 to 4.96 | COc1cc2ccnc(Nc3ccc(F)c(Cl)c3)c2cc1NC(=O)CCN1CCCC1 [Compound 1-42, N-(1-((3-chloro-4-fluorophenyl)amino)-6-methoxyisoquinolin-7-yl)-3-(pyrrolidin-1-yl)propanamide] | – |
| 4.30 to 4.96 | COc1cc2ccnc(Nc3ccc(F)cc3Cl)c2cc1NC(=O)CCCN1CCCCC1 [Compound I-19, N-(1-((2-chloro-4-fluorophenyl)amino)-6-methoxyisoquinolin-7-yl)-4-(piperidin-1-yl)butanamide] | – |

| Compound | pIC50 (BAX) | pIC50 (FL EGFR) |
| --- | --- | --- |
| COc1cc2ccnc(Nc3ccc(F)c(Cl)c3)c2cc1NC(=O)CCCN1CCCCC1 [Compound 1-1, N-(1-((3-chloro-4-fluorophenyl)amino)-6-methoxyisoquinolin-7-yl)-4-(piperidin-1-yl)butanamide] | 5.00 to 7.00 | < 5.00 |
